Each block holds one compound with its values, some of them ahead of it.
How the values were obtained:
[1] = Storage of samples under ambient conditions, form assigned by XRPD; format: physicochemical
[2] = Stability study in climate chamber (48-72 h, 40° C./75% RH), form assigned by XRPD; conditions: for XRPD Form c: form assigned after the stability studies / XRPD Form b: form assigned after the stability studies: at 40° C./75% RH; for XRPD Form b: form assigned after the stability studies: samples from anti-solvent addition, label = form before stability; for Stability after storage in a climate chamber / XRPD pattern following storage exposure in the climate chamber: 48 to 72 hours at 40 degrees centigrade and 75% relative humidity
Description: Solubility assessment experiments were carried out in a variety of solvents followed by storage in a climate chamber for 48 to 72 hours at 40 degrees centigrade and 75% relative humidity.

[3] = 1-1.5 weeks ambient, cooling-evaporative crystallization, Table 6, label = form after recrystallization
[4] = 48-72 H, samples from cooling-evaporative crystallization, Table 6, label = form after recrystallization
[5] = 48-72 H, samples from slurry conversion, Table 9, label = form after slurry
[6] = 1-1.5 weeks ambient, cooling-evaporative crystallization, Table 7, label = form after recrystallization
[7] = 1.5-2 weeks ambient, solvent-drop grinding, Table 8, label = form after grinding
[8] = 46-72 H, samples from solvent-drop grinding, Table 8, label = form after grinding
[9] = 48-72 H, samples from cooling-evaporative crystallization, Table 7, label = form after recrystallization
[10] = 1-1.5 weeks ambient, slurry conversion, Table 9, label = form after slurry

XRPD Form b: form assigned after storage under ambient conditions [1, 3]: Form U1 + Am
XRPD Form c: form assigned after the stability studies [2, 4]: Form Z_wet**
SMILES: CC(C)C(C(=O)Nc1ccc(C(=O)NO)cc1)c1ccccc1 (stereo not shown) [Form A2 + Am]

XRPD Form b: form assigned after the stability studies ([2]; 48-72 H, Table 3): Form A
SMILES: CC(C)[C@H](C(=O)Nc1ccc(C(=O)NO)cc1)c1ccccc1 [Form A2, (S)—N-hydroxy-4-(3-methyl-2-phenylbutanamido)benzamide]

XRPD Form c: form assigned after the stability studies [2, 5]: Form A
SMILES: CC(C)C(C(=O)Nc1ccc(C(=O)NO)cc1)c1ccccc1 (stereo not shown) [Form A3 + Am]

XRPD Form b: form assigned after storage under ambient conditions [1, 6]: Form L2
XRPD Form b: form assigned after storage under ambient conditions [1, 7]: Form A
XRPD Form c: form assigned after the stability studies [2, 8]: Form A
SMILES: CC(C)[C@H](C(=O)Nc1ccc(C(=O)NO)cc1)c1ccccc1 [Form A3, (S)—N-hydroxy-4-(3-methyl-2-phenylbutanamido)benzamide]

XRPD Form b: form assigned after storage under ambient conditions ([1]; 1-1.5 weeks ambient, cooling-evaporative crystallization, Table 7, label = form after recrystallization, slurry in cyclohexane/cyclohexanone): Form B1_wet**
XRPD Form b: form assigned after storage under ambient conditions ([1]; 1-1.5 weeks ambient, cooling-evaporative crystallization, Table 7, label = form after recrystallization, slurry in cyclohexanone/tetrahydrofuran): Form R
XRPD Form c: form assigned after the stability studies [2, 9]: Form A
SMILES: CC(C)[C@H](C(=O)Nc1ccc(C(=O)NO)cc1)c1ccccc1 [Form A4, (S)—N-hydroxy-4-(3-methyl-2-phenylbutanamido)benzamide]

XRPD Form b: form assigned after storage under ambient conditions [1, 7]: Form A5a
XRPD Form c: form assigned after the stability studies [2, 8]: Form A5a
XRPD pattern following storage exposure in the climate chamber [2]: remained unchanged
SMILES: CC(C)[C@H](C(=O)Nc1ccc(C(=O)NO)cc1)c1ccccc1 [Form A5a, (S)—N-hydroxy-4-(3-methyl-2-phenylbutanamido)benzamide]
Stability after storage in a climate chamber [2]: exhibited a particular degree of stability

XRPD Form b: form assigned after storage under ambient conditions [1, 10]: Form A3 + Am*
XRPD Form c: form assigned after the stability studies [2, 5]: Form A + Am*
SMILES: CC(C)C(C(=O)Nc1ccc(C(=O)NO)cc1)c1ccccc1 (stereo not shown) [Form A7 + Am]

XRPD Form b: form assigned after storage under ambient conditions [1, 6]: Form A7
XRPD Form c: form assigned after the stability studies [2, 9]: Form A_plus
SMILES: CC(C)[C@H](C(=O)Nc1ccc(C(=O)NO)cc1)c1ccccc1 [Form A7, (S)—N-hydroxy-4-(3-methyl-2-phenylbutanamido)benzamide]

XRPD Form b: form assigned after storage under ambient conditions [1, 6]: Form A8
XRPD Form c: form assigned after the stability studies [2, 9]: Form A
SMILES: CC(C)[C@H](C(=O)Nc1ccc(C(=O)NO)cc1)c1ccccc1 [Form A8, (S)—N-hydroxy-4-(3-methyl-2-phenylbutanamido)benzamide]

XRPD Form b: form assigned after storage under ambient conditions [1, 7]: Form A
XRPD Form c: form assigned after the stability studies [2, 8]: Form A
SMILES: CC(C)C(C(=O)Nc1ccc(C(=O)NO)cc1)c1ccccc1 (stereo not shown) [Form A + Form F1]

XRPD Form b: form assigned after the stability studies ([2]; 48-72 H, Table 3): Form A
SMILES: CC(C)C(C(=O)Nc1ccc(C(=O)NO)cc1)c1ccccc1 (stereo not shown) [Form A + Form H1]

XRPD Form c: form assigned after the stability studies [2, 9]: Form J1
SMILES: CC(C)C(C(=O)Nc1ccc(C(=O)NO)cc1)c1ccccc1 (stereo not shown) [Form A + Form J1]

XRPD Form b: form assigned after storage under ambient conditions [1, 7]: Form A
XRPD Form c: form assigned after the stability studies [2, 8]: Form A
SMILES: CC(C)C(C(=O)Nc1ccc(C(=O)NO)cc1)c1ccccc1 (stereo not shown) [Form A + Form V]

XRPD Form c: form assigned after the stability studies [2, 8]: Form A5a
SMILES: CC(C)[C@H](C(=O)Nc1ccc(C(=O)NO)cc1)c1ccccc1 [Form A_min + Form T]

XRPD Form b: form assigned after the stability studies ([2]; 48-72 H, Table 3): Form A_minus
SMILES: CC(C)[C@H](C(=O)Nc1ccc(C(=O)NO)cc1)c1ccccc1 [Form A_minus, (S)—N-hydroxy-4-(3-methyl-2-phenylbutanamido)benzamide]
Stability after storage in a climate chamber [2]: exhibited a particular degree of stability

XRPD Form b: form assigned after the stability studies ([2]; 48-72 H, Table 3): Form A
SMILES: CC(C)C(C(=O)Nc1ccc(C(=O)NO)cc1)c1ccccc1 (stereo not shown) [Form B1 + Form F5]

XRPD Form b: form assigned after storage under ambient conditions [1, 3]: Form D1_wet**
XRPD Form b: form assigned after storage under ambient conditions [1, 6]: Form D1_wet
XRPD Form b: form assigned after the stability studies ([2]; 48-72 H, Table 3): Form D2
XRPD Form c: form assigned after the stability studies [2, 4]: Form A_wet**
XRPD Form c: form assigned after the stability studies [2, 9]: Form A + Am*
SMILES: CC(C)[C@H](C(=O)Nc1ccc(C(=O)NO)cc1)c1ccccc1 [Form D1_wet]

XRPD Form b: form assigned after storage under ambient conditions [1, 10]: Form A_wet**
XRPD Form b: form assigned after the stability studies ([2]; 48-72 H, Table 3): Form A + Am*
XRPD Form b: form assigned after the stability studies ([2]; 48-72 H, Table 5): Form A
XRPD Form c: form assigned after the stability studies [2, 9]: Form A
XRPD Form c: form assigned after the stability studies [2, 5]: Form A
SMILES: CC(C)[C@H](C(=O)Nc1ccc(C(=O)NO)cc1)c1ccccc1 [Form F1, (S)—N-hydroxy-4-(3-methyl-2-phenylbutanamido)benzamide]

XRPD Form b: form assigned after storage under ambient conditions [1, 6]: Form A3
XRPD Form c: form assigned after the stability studies [2, 9]: Form A
SMILES: CC(C)[C@H](C(=O)Nc1ccc(C(=O)NO)cc1)c1ccccc1 [Form F2, (S)—N-hydroxy-4-(3-methyl-2-phenylbutanamido)benzamide]

XRPD Form c: form assigned after the stability studies [2, 9]: Form A
SMILES: CC(C)[C@H](C(=O)Nc1ccc(C(=O)NO)cc1)c1ccccc1 [Form F3, (S)—N-hydroxy-4-(3-methyl-2-phenylbutanamido)benzamide]

XRPD Form b: form assigned after storage under ambient conditions [1, 10]: Form A + Am*
XRPD Form c: form assigned after the stability studies [2, 5]: Form A + Am*
SMILES: CC(C)[C@H](C(=O)Nc1ccc(C(=O)NO)cc1)c1ccccc1 [Form F4_wet, (S)—N-hydroxy-4-(3-methyl-2-phenylbutanamido)benzamide]

XRPD Form b: form assigned after the stability studies ([2]; 48-72 H, Table 3): Form A + Am*
SMILES: CC(C)[C@H](C(=O)Nc1ccc(C(=O)NO)cc1)c1ccccc1 [Form G_gel, (S)—N-hydroxy-4-(3-methyl-2-phenylbutanamido)benzamide]

XRPD Form b: form assigned after storage under ambient conditions [1, 3]: Form A
XRPD Form b: form assigned after storage under ambient conditions [1, 10]: Form A
XRPD Form c: form assigned after the stability studies [2, 4]: Form A
XRPD Form c: form assigned after the stability studies [2, 5]: Form A
SMILES: CC(C)[C@H](C(=O)Nc1ccc(C(=O)NO)cc1)c1ccccc1 [Form H1, (S)—N-hydroxy-4-(3-methyl-2-phenylbutanamido)benzamide]

XRPD Form b: form assigned after storage under ambient conditions [1, 7]: Form A2
XRPD Form c: form assigned after the stability studies [2, 8]: Form A
SMILES: CC(C)[C@H](C(=O)Nc1ccc(C(=O)NO)cc1)c1ccccc1 [Form H2, (S)—N-hydroxy-4-(3-methyl-2-phenylbutanamido)benzamide]

XRPD Form b: form assigned after storage under ambient conditions ([1]; 1-1.5 weeks ambient, cooling-evaporative crystallization, Table 7, label = form after recrystallization, slurry in dimethoxyethane/methanol): Form J2
XRPD Form b: form assigned after storage under ambient conditions [1, 10]: Form J1
XRPD Form b: form assigned after storage under ambient conditions [1, 7]: Form J1
XRPD Form c: form assigned after the stability studies [2, 5]: Form J1
XRPD pattern following storage exposure in the climate chamber [2]: remained unchanged
SMILES: CC(C)[C@H](C(=O)Nc1ccc(C(=O)NO)cc1)c1ccccc1 [Form J1, (S)—N-hydroxy-4-(3-methyl-2-phenylbutanamido)benzamide]
Stability after storage in a climate chamber [2]: exhibited a particular degree of stability

XRPD Form b: form assigned after storage under ambient conditions [1, 3]: Form A
XRPD Form c: form assigned after the stability studies [2, 4]: Form A
SMILES: CC(C)[C@H](C(=O)Nc1ccc(C(=O)NO)cc1)c1ccccc1 [Form K_wet]

XRPD Form b: form assigned after storage under ambient conditions [1, 3]: Form L1
XRPD Form b: form assigned after storage under ambient conditions [1, 6]: Form L1
XRPD Form c: form assigned after the stability studies [2, 4]: Form L1
XRPD Form c: form assigned after the stability studies [2, 9]: Form L1
SMILES: CC(C)[C@H](C(=O)Nc1ccc(C(=O)NO)cc1)c1ccccc1 [Form L1, (S)—N-hydroxy-4-(3-methyl-2-phenylbutanamido)benzamide]
Stability after storage in a climate chamber [2]: exhibited a particular degree of stability

SMILES: CC(C)[C@H](C(=O)Nc1ccc(C(=O)NO)cc1)c1ccccc1 [Form L2, (S)—N-hydroxy-4-(3-methyl-2-phenylbutanamido)benzamide]
Stability after storage in a climate chamber [2]: exhibited a particular degree of stability

XRPD Form b: form assigned after storage under ambient conditions [1, 6]: Form M1
XRPD Form c: form assigned after the stability studies [2, 9]: Form M1
XRPD pattern following storage exposure in the climate chamber [2]: remained unchanged
SMILES: CC(C)[C@H](C(=O)Nc1ccc(C(=O)NO)cc1)c1ccccc1 [Form M1, (S)—N-hydroxy-4-(3-methyl-2-phenylbutanamido)benzamide]
Stability after storage in a climate chamber [2]: exhibited a particular degree of stability

XRPD Form b: form assigned after storage under ambient conditions [1, 6]: Form M2
XRPD Form c: form assigned after the stability studies [2, 9]: Form M2
XRPD pattern following storage exposure in the climate chamber [2]: remained unchanged
SMILES: CC(C)[C@H](C(=O)Nc1ccc(C(=O)NO)cc1)c1ccccc1 [Form M2, (S)—N-hydroxy-4-(3-methyl-2-phenylbutanamido)benzamide]
Stability after storage in a climate chamber [2]: exhibited a particular degree of stability

XRPD Form b: form assigned after storage under ambient conditions [1, 6]: Form R
XRPD Form c: form assigned after the stability studies [2, 9]: Form A
SMILES: CC(C)[C@H](C(=O)Nc1ccc(C(=O)NO)cc1)c1ccccc1 [Form R, (S)—N-hydroxy-4-(3-methyl-2-phenylbutanamido)benzamide]

XRPD Form c: form assigned after the stability studies [2, 9]: Form A_plus
SMILES: CC(C)C(C(=O)Nc1ccc(C(=O)NO)cc1)c1ccccc1 (stereo not shown) [Form S + Am]

XRPD Form b: form assigned after the stability studies ([2]; 48-72 H, Table 5): Form A
SMILES: CC(C)[C@H](C(=O)Nc1ccc(C(=O)NO)cc1)c1ccccc1 [Form T_wet, (S)—N-hydroxy-4-(3-methyl-2-phenylbutanamido)benzamide]

XRPD Form b: form assigned after the stability studies ([2]; 48-72 H, Table 3): Form A + Form
SMILES: CC(C)C(C(=O)Nc1ccc(C(=O)NO)cc1)c1ccccc1 (stereo not shown) [Form W + Am]

— patent US20140271604A1, “HDAC Inhibitor Polymorphic Forms and Methods of Use” (priority 2013, published 2014)
